Source: ChEMBL document CHEMBL1154382, “Preliminary SAR analysis of novel antiproliferative N(6),5'-bis-ureidoadenosine derivatives” (2009)

Legend:
Type in all cases: functional
Conditions in all cases: values are per cent of control
[1] = tested on: CCRF-CEM; test: Antiproliferative activity against human CCRF-CEM cells at 10 uM assessed as cell growth inhibition relative to control
[2] = tested on: HL-60(TB); test: Antiproliferative activity against human HL-60(TB) cells at 10 uM assessed as cell growth inhibition relative to control
[3] = tested on: K562; test: Antiproliferative activity against human K562 cells at 10 uM assessed as cell growth inhibition relative to control
[4] = tested on: MOLT-4; test: Antiproliferative activity against human MOLT4 cells at 10 uM assessed as cell growth inhibition relative to control
[5] = Antiproliferative activity against human […] cells at 10 uM assessed as cell growth inhibition relative to control
[6] = tested on: A549; test: Antiproliferative activity against human A549 cells at 10 uM assessed as cell growth inhibition relative to control
[7] = tested on: EKVX; test: Antiproliferative activity against human EKVX cells at 10 uM assessed as cell growth inhibition relative to control
[8] = tested on: PC-3; test: Antiproliferative activity against human PC3 cells at 10 uM assessed as cell growth inhibition relative to control
[9] = tested on: HOP-62; test: Antiproliferative activity against human HOP62 cells at 10 uM assessed as cell growth inhibition relative to control
[10] = tested on: HOP-92; test: Antiproliferative activity against human HOP92 cells at 10 uM assessed as cell growth inhibition relative to control
[11] = tested on: NCI-H226; test: Antiproliferative activity against human NCI-H226 cells at 10 uM assessed as cell growth inhibition relative to control
[12] = tested on: NCI-H23; test: Antiproliferative activity against human NCI-H23 cells at 10 uM assessed as cell growth inhibition relative to control
[13] = tested on: NCI-H322M; test: Antiproliferative activity against human NCI-H322M cells at 10 uM assessed as cell growth inhibition relative to control
[14] = tested on: NCI-H460; test: Antiproliferative activity against human NCI-H460 cells at 10 uM assessed as cell growth inhibition relative to control
[15] = tested on: NCI-H522; test: Antiproliferative activity against human NCI-H522 cells at 10 uM assessed as cell growth inhibition relative to control
[16] = tested on: COLO 205; test: Antiproliferative activity against human COLO205 cells at 10 uM assessed as cell growth inhibition relative to control
[17] = tested on: HCC 2998; test: Antiproliferative activity against human HCC2998 cells at 10 uM assessed as cell growth inhibition relative to control
[18] = tested on: HCT-116; test: Antiproliferative activity against human HCT116 cells at 10 uM assessed as cell growth inhibition relative to control
[19] = tested on: HCT-15; test: Antiproliferative activity against human HCT15 cells at 10 uM assessed as cell growth inhibition relative to control
[20] = tested on: HT-29; test: Antiproliferative activity against human HT-29 cells at 10 uM assessed as cell growth inhibition relative to control
[21] = tested on: KM12; test: Antiproliferative activity against human KM12 cells at 10 uM assessed as cell growth inhibition relative to control
[22] = tested on: SW-620; test: Antiproliferative activity against human SW620 cells at 10 uM assessed as cell growth inhibition relative to control
[23] = tested on: LOX IMVI; test: Antiproliferative activity against human LOXIMVI cells at 10 uM assessed as cell growth inhibition relative to control
[24] = tested on: Malme-3M; test: Antiproliferative activity against human MALME-3M cells at 10 uM assessed as cell growth inhibition relative to control
[25] = tested on: M14; test: Antiproliferative activity against human M14 cells at 10 uM assessed as cell growth inhibition relative to control
[26] = tested on: SK-MEL-2; test: Antiproliferative activity against human SK-MEL-2 cells at 10 uM assessed as cell growth inhibition relative to control
[27] = tested on: SK-MEL-28; test: Antiproliferative activity against human SK-MEL-28 cells at 10 uM assessed as cell growth inhibition relative to control
[28] = tested on: SK-MEL-5; test: Antiproliferative activity against human SK-MEL-5 cells at 10 uM assessed as cell growth inhibition relative to control
[29] = tested on: UACC-257; test: Antiproliferative activity against human UACC257 cells at 10 uM assessed as cell growth inhibition relative to control
[30] = tested on: UACC-62; test: Antiproliferative activity against human UACC62 cells at 10 uM assessed as cell growth inhibition relative to control
[31] = tested on: SF-268; test: Antiproliferative activity against human SF268 cells at 10 uM assessed as cell growth inhibition relative to control
[32] = tested on: SF-295; test: Antiproliferative activity against human SF295 cells at 10 uM assessed as cell growth inhibition relative to control
[33] = tested on: SF-539; test: Antiproliferative activity against human SF539 cells at 10 uM assessed as cell growth inhibition relative to control
[34] = tested on: SNB-19; test: Antiproliferative activity against human SNB19 cells at 10 uM assessed as cell growth inhibition relative to control
[35] = tested on: SNB-75; test: Antiproliferative activity against human SNB75 cells at 10 uM assessed as cell growth inhibition relative to control
[36] = tested on: U-251; test: Antiproliferative activity against human U251 cells at 10 uM assessed as cell growth inhibition relative to control
[37] = tested on: IGROV-1; test: Antiproliferative activity against human IGROV1 cells at 10 uM assessed as cell growth inhibition relative to control
[38] = tested on: OVCAR-3; test: Antiproliferative activity against human OVCAR-3 cells at 10 uM assessed as cell growth inhibition relative to control
[39] = tested on: OVCAR-4; test: Antiproliferative activity against human OVCAR4 cells at 10 uM assessed as cell growth inhibition relative to control
[40] = tested on: OVCAR-5; test: Antiproliferative activity against human OVCAR5 cells at 10 uM assessed as cell growth inhibition relative to control
[41] = tested on: OVCAR-8; test: Antiproliferative activity against human OVCAR8 cells at 10 uM assessed as cell growth inhibition relative to control
[42] = tested on: SK-OV-3; test: Antiproliferative activity against human SKOV3 cells at 10 uM assessed as cell growth inhibition relative to control
[43] = tested on: 786-0; test: Antiproliferative activity against human 786-0 cells at 10 uM assessed as cell growth inhibition relative to control
[44] = tested on: A498; test: Antiproliferative activity against human A498 cells at 10 uM assessed as cell growth inhibition relative to control
[45] = tested on: ACHN; test: Antiproliferative activity against human ACHN cells at 10 uM assessed as cell growth inhibition relative to control
[46] = tested on: CAKI-1; test: Antiproliferative activity against human Caki1 cells at 10 uM assessed as cell growth inhibition relative to control
[47] = tested on: RXF 393; test: Antiproliferative activity against human RXF393 cells at 10 uM assessed as cell growth inhibition relative to control
[48] = tested on: SN12C; test: Antiproliferative activity against human SN12C cells at 10 uM assessed as cell growth inhibition relative to control
[49] = tested on: TK-10; test: Antiproliferative activity against human TK10 cells at 10 uM assessed as cell growth inhibition relative to control
[50] = tested on: UO-31; test: Antiproliferative activity against human UO31 cells at 10 uM assessed as cell growth inhibition relative to control
[51] = tested on: BT-549; test: Antiproliferative activity against human BT549 cells at 10 uM assessed as cell growth inhibition relative to control
[52] = Antiproliferative activity against human Hs 578T cells at 10 uM assessed as cell growth inhibition relative to control
[53] = tested on: MCF7; test: Antiproliferative activity against human MCF7 cells at 10 uM assessed as cell growth inhibition relative to control
[54] = tested on: MDA-MB-231; test: Antiproliferative activity against human MDA-MB-231 cells at 10 uM assessed as cell growth inhibition relative to control
[55] = tested on: MDA-MB-468; test: Antiproliferative activity against human MDA-MB-468 cells at 10 uM assessed as cell growth inhibition relative to control
[56] = tested on: T47D; test: Antiproliferative activity against human T47D cells at 10 uM assessed as cell growth inhibition relative to control
[57] = tested on: DU-145; test: Antiproliferative activity against human DU145 cells at 10 uM assessed as cell growth inhibition relative to control

## CCOC(=O)C[C@H]1[C@@H](O[Si](C)(C)C(C)(C)C)[C@H](n2cnc3c(NC(=O)Nc4ccccc4)ncnc32)O[C@@H]1CN=[N+]=[N-]
[1]
  growth, % of control at 10 µM: 63%
[2]
  growth, % of control at 10 µM: 51%
[3]
  growth, % of control at 10 µM: 72%
[4]
  growth, % of control at 10 µM: 79%
[5]
  growth, % of control at 10 µM: 75%
[6]
  growth, % of control at 10 µM: 103%
[7]
  growth, % of control at 10 µM: 89%
[8]
  growth, % of control at 10 µM: 64%
[9]
  growth, % of control at 10 µM: 98%
[10]
  growth, % of control at 10 µM: 100%
[11]
  growth, % of control at 10 µM: 62%
[12]
  growth, % of control at 10 µM: 97%
[13]
  growth, % of control at 10 µM: 99%
[14]
  growth, % of control at 10 µM: 104%
[15]
  growth, % of control at 10 µM: 90%
[16]
  growth, % of control at 10 µM: 114%
[17]
  growth, % of control at 10 µM: 121%
[18]
  growth, % of control at 10 µM: 82%
[19]
  growth, % of control at 10 µM: 84%
[20]
  growth, % of control at 10 µM: 104%
[21]
  growth, % of control at 10 µM: 101%
[22]
  growth, % of control at 10 µM: 101%
[23]
  growth, % of control at 10 µM: 96%
[24]
  growth, % of control at 10 µM: 97%
[25]
  growth, % of control at 10 µM: 101%
[26]
  growth, % of control at 10 µM: 91%
[27]
  growth, % of control at 10 µM: 116%
[28]
  growth, % of control at 10 µM: 104%
[29]
  growth, % of control at 10 µM: 88%
[30]
  growth, % of control at 10 µM: 83%
[31]
  growth, % of control at 10 µM: 95%
[32]
  growth, % of control at 10 µM: 94%
[33]
  growth, % of control at 10 µM: 89%
[34]
  growth, % of control at 10 µM: 92%
[35]
  growth, % of control at 10 µM: 73%
[36]
  growth, % of control at 10 µM: 95%
[37]
  growth, % of control at 10 µM: 93%
[38]
  growth, % of control at 10 µM: 111%
[39]
  growth, % of control at 10 µM: 66%
[40]
  growth, % of control at 10 µM: 107%
[41]
  growth, % of control at 10 µM: 98%
[42]
  growth, % of control at 10 µM: 101%
[43]
  growth, % of control at 10 µM: 89%
[44]
  growth, % of control at 10 µM: 121%
[45]
  growth, % of control at 10 µM: 92%
[46]
  growth, % of control at 10 µM: 87%
[47]
  growth, % of control at 10 µM: 111%
[48]
  growth, % of control at 10 µM: 81%
[49]
  growth, % of control at 10 µM: 103%
[50]
  growth, % of control at 10 µM: 83%
[51]
  growth, % of control at 10 µM: 100%
[52]
  growth, % of control at 10 µM: 92%
[53]
  growth, % of control at 10 µM: 85%
[54]
  growth, % of control at 10 µM: 95%
[55]
  growth, % of control at 10 µM: 95%
[56]
  growth, % of control at 10 µM: 73%
[57]
  growth, % of control at 10 µM: 105%
